Assay results: PMC8124774, “Tuning Anti-Biofilm Activity of Manganese(II) Complexes: Linking Biological Effectiveness of Heteroaromatic Complexes of Alcohol, Aldehyde, Ketone, and Carboxylic Acid with Structural Effects and Redox Activity” (International Journal of Molecular Sciences, 2021)
Values joined by “and” are separate entries in the source; they are usually repeats but may differ in a detail not shown here. Equal entries are not always repeated. Where two headings read alike, the source gives them in different places.

Legend:
[1] = test system: Staphylococcus aureus ATCC 6538P; assay: broth microdilution MIC, S. aureus; format: cell-based
Protocol: (§1) The antimicrobial activities of the heteroaromatic ligands, Mn(II) complexes, and commercially available drug streptomycin were tested against standard bacterial strains: Staphylococcus aureus ATCC 6538P, Escherichia coli ATCC 8739, Pseudomonas aeruginosa PAO1 (biofilm model strain), and Pseudomonas aeruginosa LES B58 (clinical isolate). The P. aeruginosa PAO1 and LES B58 isolates were derived from the International Pseudomonas aeruginosa Reference Panel (http://bccm.belspo.be/about-us/bccm-lmg, accessed on 30 March 2021).
(§2) All bacteria species were cultivated in trypticase soy broth (TSB) medium (Biocorp, Warsaw, Poland) for 18 h at 37 °C with shaking (160 rpm). Overnight cultures of bacteria were diluted 1:100 into fresh TSB medium and then placed in each of the 96 wells of a microtiter transparent plate (Greiner, Monroe, NC, USA). The manganese(II) complexes—[Mn-pyOH-SO4]n, Mn-imCHO-NO3, Mn-imCHO-Cl, Mn-dipyCO-NO3—and the ligands—pyOH, pyCOOH—were prepared by dissolving compounds in distilled water. […] The starting stock solution was of 2-mM concentration.
(§3) The quantitative assay of the antibacterial activity was performed by the broth microdilution method, in 96-well microtiter plates, in order to establish the minimum inhibitory concentration (MIC). To this purpose, serial two-fold dilutions of the compounds ranging between 1 and 0.0625 mM were made. The details of the experiment were presented in our previous paper.

[2] = test system: Pseudomonas aeruginosa LES B58; assay: broth microdilution MIC, P. aeruginosa LES B58; format: cell-based
Protocol: as §1, §2, §3

[3] = test system: Pseudomonas aeruginosa PAO1; assay: broth microdilution MIC, P. aeruginosa PAO1; format: cell-based; details: P. aeruginosa PAO1, planktonic cells
Protocol: as §1, §2, §3

[4] = test system: Escherichia coli ATCC 8739; assay: broth microdilution MIC, E. coli; format: cell-based
Protocol: as §1, §2, §3

[5] = test system: P. aeruginosa PAO1 biofilm; assay: biofilm formation, crystal violet staining assay; format: cell-based, Pseudomonas aeruginosa; details: for % Inhibit. Biofilm (0.25 mM) / % Inhibit. Biofilm (0.5 mM): P. aeruginosa PAO1, vs untreated control
Protocol: as §2
To evaluate the effect of the compounds on P. aeruginosa biofilm formation, a crystal violet staining assay was used, following previously described protocols. The concentration of the investigated compounds was in the range 0.0625–1 mM. The amount of biofilm formed was determined by measuring the absorbance at λ = 595 nm with the Infinite M200 PRO microplate reader (Tecan, Männedorf, Switzerland). The measurement results, expressed in absorbance units, were converted into percentages to allow the comparison of numerical data obtained in different experiments.

[6] = biological target: T1, catalase from the bovine liver (Bos taurus, UniProt P00432); assay: catalase activity in the presence of the Mn(II) complexes (absorbance at 240 nm); format: biochemical; details: 0.5 mM complex, vs catalase alone
T1 construct: The catalase from the bovine liver solution; purchased Sigma–Aldrich; host or cells: bovine liver
T1 sequence (P00432 2-527 limits assumed): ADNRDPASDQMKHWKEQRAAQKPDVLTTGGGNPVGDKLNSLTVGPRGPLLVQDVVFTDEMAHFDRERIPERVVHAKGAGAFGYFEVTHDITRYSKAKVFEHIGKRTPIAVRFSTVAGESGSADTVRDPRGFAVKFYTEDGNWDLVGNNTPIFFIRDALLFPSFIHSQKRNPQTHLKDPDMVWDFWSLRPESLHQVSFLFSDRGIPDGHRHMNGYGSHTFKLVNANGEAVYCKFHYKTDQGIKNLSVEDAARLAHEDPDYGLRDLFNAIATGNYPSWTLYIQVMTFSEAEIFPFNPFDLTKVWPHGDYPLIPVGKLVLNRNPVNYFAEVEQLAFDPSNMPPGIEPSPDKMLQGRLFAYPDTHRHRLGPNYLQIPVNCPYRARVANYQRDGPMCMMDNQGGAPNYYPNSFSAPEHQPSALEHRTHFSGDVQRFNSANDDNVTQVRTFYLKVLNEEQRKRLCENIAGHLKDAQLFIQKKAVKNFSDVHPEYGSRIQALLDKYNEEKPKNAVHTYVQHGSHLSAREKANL
Protocol: First, the complexes were incubated with the catalase in the presence of a phosphate buffer, and then hydrogen peroxide was added thereto. To study the effect of the manganese complexes on the activity of CAT, its performance, in the presence of similar concentrations of the Mn complexes (0.5 mM), was investigated. The percentage of absorbance reduction over time was recorded at 240 nm. The positive control was the catalase sample in the absence of the Mn(II) complex. Figure 12 illustrates the effect of the Mn(II) complexes on the catalase activity.
The effect of the manganese complexes on the activity of catalase (CAT) was determined using the spectrophotometric method. The decrease in absorbance due to hydrogen peroxide depletion was recorded at 240 nm by the V-780 UV-Vis/NIR spectrophotometer (Jasco, Easton, MD, USA). The tests were performed in a 50-mM potassium phosphate buffer (PBS) at 37 °C, pH = 7.0. The catalase from the bovine liver solution (Sigma–Aldrich, St. Louis, MO, USA, lyophilized powder, ≥10,000 units/mg protein) was prepared in the PBS buffer as an initial dilution of ~1000 units/mL at 37 °C. The hydrogen peroxide solution, approximately 0.03% (w/w), was prepared by dilution in the PBS buffer to achieve the absorbance close to 1 a.u, and the PBS was used as a blank. The manganese complexes were diluted in the PBS buffer to stock the concentration of 1 mM. The mixture of 500 µL of the hydrogen peroxide, 1 µL of the catalase (final 1U of catalase activity), and 500 µL of the manganese complexes, previously incubated in a water bath at 37 °C, was added to a quartz cuvette (10 mm, 1 mL), closed by a cover, and placed in the spectrophotometer. The absorbance readings were performed in 10-s intervals during the first minute of the incubation time at 37 °C. The results were presented as the dependence on the percentage of the absorbance reduction over time.

[7] = test system: primary human fibroblasts (VH10); assay: cytotoxicity, MTT test; format: cell-based; details: VH10 cells, 24 h, 15–1000 µM
Protocol: Primary human fibroblasts (VH10) were cultured at 37 °C in a humidified 5% CO2 atmosphere in plastic dishes in Dulbecco’s modified eagle medium (DMEM) supplemented with 10% heat inactivated fetal calf serum, 2 mM of l-glutamine, and antibiotics (100 units/mL penicillin and 100 µg/mL streptomycin). Cytotoxic properties of manganese complexes were measured by EZcount^TM MTT cell assay kit (HiMedia Laboratories Pvt., Ltd., Mumbai, India) in accordance with the manufacturer’s instructions. Cells were seeded into a 96-well plate and incubated with manganese complexes in the concentration range of 15–1000 µM for 24 h at 37 °C in a humidified atmosphere of 5% CO2. After incubation, a solution of MTT (3-[4,5-dimethylthiazol-2-yl]-2, 5-diphenyl tetrazolium bromide) at a concentration (1 mg/mL) was added to each well. After incubation at 37 °C for 4 h, 100 µL of 0.04 M HCl in isopropanol was added to each well and mixed thoroughly to dissolve the dark blue crystals. The measurement of absorbance of the solution related to the number of live cells was conducted on a TECAN Spark Microplate Reader (TECAN, Männedorf, Switzerland) at 570 nm with a reference wavelength 600 nm. All samples were tested in three independent experiments. Results were normalized to the control.
Inhibitory concentrations (IC50) represent the concentrations of the tested samples required to inhibit 50% cell proliferation and were calculated from the mean values of data from wells.

[8] = test system: pyoverdine secretion by P. aeruginosa PAO1; assay: pyoverdine production (spectrofluorometric); format: cell-based, Pseudomonas aeruginosa; details: 0.5 mM complexes, 24 h, vs negative control (TSB medium with inoculated bacteria)
Protocol: In the experiment the spectrofluorometric method was used, and data were expressed as the relative light units (RLU).
Pyoverdine determination was performer in TSB medium. Measurement of pyoverdine fluorescence was performed at the excitation wavelength λ = 398 nm and the emission wavelength λ = 455 nm as described previously [66]. Experiments were carried out in triplicate in 96-well black flat-bottomed microtiter plates (Greiner, Monroe, NC, USA) for 24 h in cell-free culture medium using an Infinite M200PRO (Tecan, Männedorf, Switzerland). The assay was performed with the series of Mn(II) complexes (0.5 mM) and streptomycin as a positive control, and TSB medium with inoculated bacteria as a negative control. The siderophore secretion assay was conducted as three independent repeats. The results obtained were not disturbed by the emission band characteristic of the Mn(II) complexes.

[9] = P. aeruginosa LES B58, planktonic cells
[10] = Staphylococcus aureus, ATCC6538P, S. aureus, planktonic cells, read-out: MIC
[11] = Pseudomonas aeruginosa, LESB58, P. aeruginosa LES B58, planktonic cells, read-out: MIC
[12] = Pseudomonas aeruginosa, read-out: MIC
[13] = Escherichia coli, ATCC8739, planktonic cells, read-out: MIC

Compound | MIC ([1]; S. aureus, planktonic cells) | MIC [2, 9] | MIC [3] | MIC ([4]; planktonic cells) | other results
O.O.O.O.O=[N+]([O-])[O-].O=[N+]([O-])[O-].[Mn+2] [Mn(NO3)2·4H2O] | > 1 mM and > 251 μg/ml | > 1 mM and > 251 μg/ml | > 1 mM and > 251 μg/ml | > 1 mM and > 251 μg/ml | –
O=C(c1ccccn1)c1ccccn1.O=C(c1ccccn1)c1ccccn1.O=[N+]([O-])[O-].O=[N+]([O-])[O-].[Mn+2] [Mn-dipyCO-NO3] | > 1 mM and > 547 μg/ml | > 1 mM and > 547 μg/ml | > 1 mM and > 547 μg/ml | > 1 mM and > 547 μg/ml | % Inhibit. Biofilm (0.25 mM) [5]: 21%; % Inhibit. Biofilm (0.5 mM) [5]: 36%; Action on catalase activity [6]: attenuate the catalase activity
Cc1[nH]cnc1C=O.Cc1[nH]cnc1C=O.[Cl-].[Cl-].[Mn+2] [Mn-imCHO-Cl] | > 1 mM and > 346 μg/ml | > 1 mM and > 346 μg/ml | > 1 mM and > 346 μg/ml | > 1 mM and > 346 μg/ml | % Inhibit. Biofilm (0.25 mM) [5]: 24%; % Inhibit. Biofilm (0.5 mM) [5]: 29%; IC50 [7]: > 1 mM; Action on catalase activity [6]: attenuate the catalase activity
O.O.O.O.[Cl][Mn][Cl] [MnCl2·4H2O] | > 1 mM and > 198 μg/ml | > 1 mM and > 198 μg/ml | > 1 mM and > 198 μg/ml | > 1 mM and > 198 μg/ml | –
O.O=S(=O)([O-])[O-].[Mn+2] [MnSO4·H2O] | > 1 mM and > 169 μg/ml | > 1 mM and > 169 μg/ml | > 1 mM and > 169 μg/ml | > 1 mM and > 169 μg/ml | –
[H]/N=C(/N)N[C@H]1[C@H](O)[C@@H](O)[C@H](O[C@@H]2O[C@@H](C)[C@](O)(C=O)[C@H]2O[C@@H]2O[C@@H](CO)[C@H](O)[C@@H](O)[C@@H]2NC)[C@@H](N/C(N)=N\[H])[C@@H]1O [Streptomycin, reference compound] | – | – | – | – | MIC ([1]; Staphylococcus aureus, ATCC6538P): 125 µM; MIC [1, 10]: 73 µg/mL; decrease of pyoverdine production [8]: 96%; MIC ([2]; Pseudomonas aeruginosa, LESB58): 125 µM; MIC [2, 11]: 73 µg/mL; MIC [3, 12]: 62.5 µM and 36 µg/mL; MIC [4, 13]: 62.5 µM and 36 µg/mL
O=C(c1ccccn1)c1ccccn1 [dipyCO, dipyridin-2-ylmethanone] | – | – | – | – | MIC [1, 10]: > 1000 µM and > 184 µg/mL; inhibition at 1000 µM ([5]; Pseudomonas aeruginosa, PAO1, 1 mM, P. aeruginosa biofilm): 49%; MIC [2, 11]: > 1000 µM and > 184 µg/mL; MIC [3, 12]: > 1000 µM and > 184 µg/mL; MIC [4, 13]: > 1000 µM and > 184 µg/mL
Cc1nc[nH]c1C=O [imCHO, 5(4)-carbaldehyde-4(5)-methylimidazole] | > 1 mM and > 110 μg/ml | > 1 mM and > 110 μg/ml | > 1 mM and > 110 μg/ml | > 1 mM and > 110 μg/ml | –
O=C(O)c1cccnc1C(=O)O [pyCOOH, pyridine-2,3-dicarboxylic anion] | > 1 mM and > 167 μg/ml | > 1 mM and > 167 μg/ml | > 1 mM and > 167 μg/ml | > 1 mM and > 167 μg/ml | –
OCc1ccccn1 [pyOH, 2-hydroxymethylpyridyne] | > 1 mM and > 109 μg/ml | > 1 mM and > 109 μg/ml | > 1 mM and > 109 μg/ml | > 1 mM and > 109 μg/ml | –
